The subject of data set [1] is IL-2 secretion, human white blood cells. Description: IL-2 secretion by PMA/ionomycin-stimulated human white blood cells (ELISA). (In general: ELISA stands for enzyme-linked immunosorbent assay.)
Protocol: (§1) Various concentrations of each test compound were added at the time of stimulation. […] After the plate was washed with 0.1% Tween 20/PBS, an HRP-luminescent substrate was added to each well and light intensity measured using a LJL Analyst plate luminometer.
(§2) The percent inhibition (% I) for each well was calculated using the following formula:
(§3) The average untreated well value (avg. untreated wells) is the arithmetic mean of 40 wells from the same assay plate treated with vehicle alone.
Data set [2] concerns TNFα secretion, human white blood cells. Description: TNFα secretion, lipopolysaccharide stimulation, human white blood cells (ELISA).
Protocol: as §1, §2, §3
Data set [3] has the same test system. Conditions: cyclosporine 0 μM.
Protocol: Drugs were added to the indicated concentration. […] The plate was then washed again with 0.1% Tween 20/PBS. An HRP-luminescent substrate was added to each well, and the light intensity of each well was measured using a plate luminometer.
as §2, §3
For data set [4] the following is noted: cited from earlier work.
[5] abbreviates: read-out: % Inhibition of TNFα secretion, cyclosporine A 0 μM, chlorpromazine […].
Where [6] appears, read: read-out: % Inhibition of IL-2 secretion.
Where [7] appears, read: read-out: % Inhibition of IL-2 secretion, cyclosporine A 0.00 μM, ethopropazine […].
Setting [8] is: read-out: % Inhibition of TNFα secretion, cyclosporine A 0.00 μM, ethopropazine […].

Several values for one entry are separate records, joined by “and”; a condition that tells them apart may be missing. Equal entries are not always repeated. Where two headings read alike, the source gives them in different places.

For orientation: inhibition means the change of the read-out against control, counted positive when it falls.

Turning to `CN(C)CCCN1c2ccccc2Sc2ccc(Cl)cc21` [Chlorpromazine], in data set [1] (read-out: % Inhibition of IL-2 secretion, cyclosporine A 0 μM, chlorpromazine 0.6 μM), the inhibition at 0.6 µM was -13.3%. Besides, the inhibition at 5 µM in data set [1] (read-out: % Inhibition of IL-2 secretion, cyclosporine A 0 μM, chlorpromazine 5.0 μM) is -13.7%. Besides, the inhibition at 20 µM in data set [1] (read-out: % Inhibition of IL-2 secretion, cyclosporine A 0 μM, chlorpromazine 20.0 μM) was 24.7%. The inhibition at 40 µM in data set [1] (read-out: % Inhibition of IL-2 secretion, cyclosporine A 0 μM, chlorpromazine 40.0 μM) was found to be 80.7%. In addition, the inhibition at 80 µM in data set [1] (read-out: % Inhibition of IL-2 secretion, cyclosporine A 0 μM, chlorpromazine 80.0 μM) came to 94.7%. In data set [2] (setting [5]), the inhibition at 17 µM stood at 46.2% and the inhibition at 35 µM was determined as 45.5%.
With `C=CC[C@@H]1/C=C(\C)C[C@H](C)C[C@H](OC)[C@H]2O[C@@](O)(C(=O)C(=O)N3CCCC[C@H]3C(=O)O[C@H](/C(C)=C/[C@@H]3CC[C@@H](O)[C@H](OC)C3)[C@H](C)[C@@H](O)CC1=O)[C@H](C)C[C@@H]2OC` [Tacrolimus], the inhibition at 0.0004 µM in data set [1] (PBMC, read-out: % Inhibition IL-2 PBMC PI, tacrolimus 0.0004 μM, fluvoxamine μM: 0,0.16,0.31,0.62,1.2,2.5,5,10,20) was 0.73%. Moreover, the inhibition at 0.0008 µM in data set [1] (PBMC, read-out: % Inhibition IL-2 PBMC PI, tacrolimus 0.0008 μM, fluvoxamine μM: 0,0.16,0.31,0.62,1.2,2.5,5,10,20) was -4.4%. Moreover, the inhibition at 0.05 µM in data set [1] (PBMC, read-out: % Inhibition IL-2 PBMC PI, tacrolimus 0.05 μM, fluvoxamine μM: 0,0.16,0.31,0.62,1.2,2.5,5,10,20) is 87%; in data set [1] (read-out: maximal inhibition of IL-2 production, tacrolimus 0.05 μM alone), 87%.
For the compound `CN(C)C(=O)C(CCN1CCC(O)(c2ccc(Cl)cc2)CC1)(c1ccccc1)c1ccccc1` [Loperamide], in data set [1] (setting [6]), the inhibition at 17 µM is 4.2%; the inhibition at 35 µM is 42.4%; the inhibition at […] is -14.9% and -15.5% and -10.5% and -15.4% (2×) and -13.5%. Moreover, in data set [2] (read-out: % Inhibition of TNFα secretion), the inhibition at 35 µM stood at 87.3%.
With `CCOC(=O)N1CCC(=C2c3ccc(Cl)cc3CCc3cccnc32)CC1` [Loratadine], the “Reduction of TNFα secretion” value in data set [3] (loratadine 0.2 μM) amounted to 0; in data set [3] (loratadine 13 μM) it was 30.1; in data set [3] (loratadine 26 μM), 40.7.
Turning to `CO[C@H]1C[C@@H]2CC[C@@H](C)[C@@](O)(O2)C(=O)C(=O)N2CCCC[C@H]2C(=O)O[C@H]([C@H](C)C[C@@H]2CC[C@@H](O)[C@H](OC)C2)CC(=O)[C@H](C)/C=C(\C)[C@@H](O)[C@@H](OC)C(=O)[C@H](C)C[C@H](C)/C=C/C=C/C=C/1C` [Rapamycin], the “absorption after oral administration” value in data set [4] was “absorbed rapidly and completely”.
On to `CCN(CC)C(C)CN1c2ccccc2Sc2ccccc21` (centres unmarked) [Ethopropazine], for which, in data set [1] (setting [7]), the inhibition at 17 µM came to 21% and the inhibition at 35 µM was found to be 52.3%. Further, in data set [2] (setting [8]), the inhibition at 17 µM was 24.3% and the inhibition at 35 µM turned out to be 69.6%.

(Values after US20040224876A1, “Combination therapy for the treatment of immunoinflammatory disorders” (priority 2003, published 2004).)
